# Assay results reported in patent US12312355B2, “1H-[1, 2, 3]triazolo[4, 5-h] quinazoline compounds acting as protein kinase inhibitors” (CHENGDU CYNOGEN BIO-PHARMACEUTICAL TECHNOLOGY CO., LTD., priority 2019, dated 2025).
# pIC50: −log10 of the molar value. Where a name gives a salt, the structure may show the parent alone.
# Tests used:
# [1] = biological target: CDK4/cyclin D3 (Homo sapiens (Human), UniProt P11802); assay: Kinase activity assay, Caliper Mobility Shift Assay, CDK4/cyclin D3; type: biochemical; settings: class symbols
# Chain of CDK4/cyclin D3 (P11802 whole entry, species assumed): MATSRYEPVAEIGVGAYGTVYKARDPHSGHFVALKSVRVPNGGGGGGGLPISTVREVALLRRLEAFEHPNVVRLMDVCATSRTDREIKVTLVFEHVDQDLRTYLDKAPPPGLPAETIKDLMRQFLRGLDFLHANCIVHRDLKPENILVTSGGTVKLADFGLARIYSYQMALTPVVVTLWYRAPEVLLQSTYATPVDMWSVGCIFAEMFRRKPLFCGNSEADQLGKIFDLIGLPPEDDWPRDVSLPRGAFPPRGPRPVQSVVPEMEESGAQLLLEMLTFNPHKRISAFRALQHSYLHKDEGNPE
# Chain of CDK4/cyclin D3 (P30281 whole entry partner, species assumed): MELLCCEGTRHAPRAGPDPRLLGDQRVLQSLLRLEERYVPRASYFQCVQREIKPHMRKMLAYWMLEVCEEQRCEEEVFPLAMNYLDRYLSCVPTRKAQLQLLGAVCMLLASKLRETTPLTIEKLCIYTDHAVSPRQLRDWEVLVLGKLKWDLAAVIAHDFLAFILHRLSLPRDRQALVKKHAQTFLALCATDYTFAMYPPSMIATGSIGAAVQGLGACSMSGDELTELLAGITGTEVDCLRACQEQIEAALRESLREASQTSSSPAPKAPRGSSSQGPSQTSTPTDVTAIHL
# Experimental: The inhibitory effect of the compound on the kinase CDK4/cyclin D3 was tested by the Caliper Mobility Shift Assay method. The final test concentration of the compound was 10 concentrations, which started from […] and were obtained by three-fold dilution. 5 μL of 5-fold final concentration compound and 10 μL of CDK4/Cyclin D3 kinase solution with final concentration of 10 nM were added to the 384-well reaction plate respectively, and pre incubated at room temperature for 10 minutes (the negative control well contained 10 μL kinase buffer and 5 μL 5% DMSO; the positive control well contained 10 μL kinase solution and 5 μL 5% DMSO). The mixture of 10 μL ATP with a final concentration of 250 μM and the corresponding substrate peptide was added to initiate the reaction, and the mixture was reacted at room temperature for 150 minutes. 30 μL of stop test solution containing EDTA was added to stop the kinase reaction. Conversion rate was read by Caliper EZ Reader. Conversion inhibition rate %=(average conversion rate of positive control %−sample conversion rate %)/(average conversion rate of positive control %−average conversion rate of negative control %). Wherein: the negative control well represents conversion rate reading of wells without enzyme activity; the positive control well represents conversion rate reading of wells without compound inhibition. The log value of concentration was taken as the X-axis and the percentage inhibition rate was the Y-axis. […] Calculation formula: Y=Bottom+(Top−Bottom)/(1+10^((Log IC50−X)*HillSlope)).
# [2] = biological target: CDK6/cyclin D3 (Homo sapiens (Human), UniProt Q00534); assay: Kinase activity assay, Caliper Mobility Shift Assay, CDK6/cyclin D3; type: biochemical; settings: class symbols
# Chain of CDK6/cyclin D3 (Q00534 whole entry, species assumed): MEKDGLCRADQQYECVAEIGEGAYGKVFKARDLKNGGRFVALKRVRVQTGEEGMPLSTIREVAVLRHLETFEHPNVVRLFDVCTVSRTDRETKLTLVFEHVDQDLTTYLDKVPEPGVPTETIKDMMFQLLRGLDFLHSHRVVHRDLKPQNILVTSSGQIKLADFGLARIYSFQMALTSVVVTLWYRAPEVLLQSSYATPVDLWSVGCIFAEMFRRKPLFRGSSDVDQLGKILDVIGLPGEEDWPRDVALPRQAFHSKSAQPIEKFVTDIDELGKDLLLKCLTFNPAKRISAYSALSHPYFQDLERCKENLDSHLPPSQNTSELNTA
# Chain of CDK6/cyclin D3 (P30281 whole entry partner, species assumed): as the sequence (P30281 whole entry partner, species assumed) above
pIC50 [1],pIC50 [2],Structure (SMILES)
> 8.00,> 8.00,"CC(C)n1nnc2ccc3cnc(Nc4ccc(N5CCNCC5)cn4)nc3c21 [Compound I-1, 1-Isopropyl-N-(5-(piperazin-1-yl)pyridin-2-yl)-1H-[1,2,3]triazolo[4,5-h]quinazolin-8-amine hydrochloride]"
7.30 to 8.00,7.00 to 7.30,"Cc1cc(Nc2ncc3ccc4nnn(C(C)C)c4c3n2)ncc1N1CCNCC1 [Compound I-2, 1-Isopropyl-N-(4-methyl-5-(piperazin-1-yl)pyridin-2-yl)-1H-[1,2,3]triazolo[4,5-h]quinazolin-8-amine hydrochloride]"
> 8.00,> 8.00,"Cc1nc(Nc2ncc3ccc4nnn(C(C)C)c4c3n2)ccc1N1CCNCC1 [Compound I-3, 1-Isopropyl-N-(6-methyl-5-(piperazin-1-yl)pyridin-2-yl)-1H-[1,2,3]triazolo[4,5-h]quinazolin-8-amine hydrochloride]"
> 8.00,> 8.00,"CC(C)n1nnc2ccc3cnc(Nc4ccc(N5CCN(C)CC5)cn4)nc3c21 [Compound I-4, 1-Isopropyl-N-(5-(4-methylpiperazin-1-yl)pyridin-2-yl)-1H-[1,2,3]triazolo[4,5-h]quinazolin-8-amine hydrochloride]"
> 8.00,> 8.00,"CCN1CCN(c2ccc(Nc3ncc4ccc5nnn(C(C)C)c5c4n3)nc2)CC1 [Compound I-5, N-(5-(4-Ethylpiperazin-1-yl)pyridin-2-yl)-1-isopropyl-1H-[1,2,3]triazolo[4,5-h]quinazolin-8-amine hydrochloride]"
> 8.00,7.30 to 8.00,"CC(C)n1nnc2ccc3cnc(Nc4ccc(N5CCOCC5)cn4)nc3c21 [Compound I-6, 1-Isopropyl-N-(5-morpholinopyridin-2-yl)-1H-[1,2,3]triazolo[4,5-h]quinazo-lin-8-amine hydrochloride]"
> 8.00,> 8.00,"CC(C)N1CCN(c2ccc(Nc3ncc4ccc5nnn(C(C)C)c5c4n3)nc2)CC1 [Compound I-7, 1-Isopropyl-N-(5-(4-isopropylpiperazin-1-yl)pyridin-2-yl)-1H-[1,2,3]triazolo [4,5-h]quinazolin-8-amine hydrochloride]"
> 8.00,7.30 to 8.00,"CC(C)n1nnc2ccc3cnc(Nc4ccc(N5CCN(C6CC6)CC5)cn4)nc3c21 [Compound I-8, N-(5-(4-Cyclopropylpiperazin-1-yl)py-ridin-2-yl)-1-isopropyl-1H-[1,2,3]tri-azolo[4,5-h]quinazolin-8-amine hydrochloride]"
> 8.00,> 8.00,"CC(C)CN1CCN(c2ccc(Nc3ncc4ccc5nnn(C(C)C)c5c4n3)nc2)CC1 [Compound I-9, N-(5-(4-Isobutylpiperazin-1-yl)pyridin-2-yl)-1-isopropyl-1H-[1,2,3]triazolo [4,5-h]quinazolin-8-amine hydrochloride]"
> 8.00,7.30 to 8.00,"CCN1CCN(Cc2ccc(Nc3ncc4ccc5nnn(C(C)C)c5c4n3)nc2)CC1 [Compound I-10, N-(5-((4-Ethylpiperazin-1-yl)methyl)pyridin-2-yl)-1-isopropyl-1H-[1,2,3]tri-azolo[4,5-h]quinazolin-8-amine hydrochloride]"
> 8.00,> 8.00,"CC(C)n1nnc2ccc3cnc(Nc4ccc(N5CCC(N(C)C)CC5)cn4)nc3c21 [Compound I-11, N-(5-(4-(Dimethylamino)piperidin-1-yl)pyridin-2-yl)-1-isopropyl-1H-[1,2,3] triazolo[4,5-h]quinazolin-8-amine hydrochloride]"
> 8.00,> 8.00,"CC(C)n1nnc2ccc3cnc(Nc4ccc(C5CCNCC5)cn4)nc3c21 [Compound I-12, 1-Isopropyl-N-(5-(piperidin-4-yl)pyri-din-2-yl)-1H-[1,2,3]triazolo[4,5-h]quin-azolin-8-amine hydrochloride]"
> 8.00,7.30 to 8.00,"CC(C)n1nnc2ccc3cnc(Nc4ccc(N5CCNCC5)nn4)nc3c21 [Compound I-13, 1-Isopropyl-N-(6-(piperazin-1-yl)pyri-dazin-3-yl)-1H-[1,2,3]triazolo[4,5-h]quin-azolin-8-amine hydrochloride]"
> 8.00,7.30 to 8.00,"CC(C)n1nnc2ccc3cnc(Nc4ccc(N5CCNCC5=O)cn4)nc3c21 [Compound I-14, 1-(6-((1-Isopropyl-1H-[1,2,3]triazolo[4,5-h]quinazolin-8-yl)amino)pyridin-3-yl)piperazin-2-one hydrochloride]"
> 8.00,7.30 to 8.00,"CC(C)n1nnc2ccc3cnc(Nc4ccc(N5CCS(=O)(=O)CC5)cn4)nc3c21 [Compound I-15, 4-(6-((1-Isopropyl-1H-[1,2,3]triazolo[4,5-h]quinazolin-8-yl)amino)pyridin-3-yl)thiomorpholine 1,1-dioxide hydrochloride]"
> 8.00,> 8.00,"COc1ccc2cc(Nc3ncc4ccc5nnn(C(C)C)c5c4n3)ccc2n1 [Compound I-16, 1-Isopropyl-N-(2-methoxyquinolin-6-yl)-1H-[1,2,3]triazolo[4,5-h]quinazolin-8-amine hydrochloride]"
> 8.00,7.30 to 8.00,"CC(C)n1nnc2ccc3cnc(Nc4ccc(N5CC6(CCNCC6)C5)cn4)nc3c21 [Compound I-17, N-(5-(2,7-Diazaspiro[3.5]nonan-2-yl)pyridin-2-yl)-1-isopropyl-1H-[1,2,3]tri-azolo[4,5-h]quinazolin-8-amine hydrochloride]"
> 8.00,7.30 to 8.00,"CC(C)Cn1nnc2ccc3cnc(Nc4ccc(N5CCNCC5)cn4)nc3c21 [Compound I-18, 1-Isobutyl-N-(5-(piperazin-1-yl)pyridin-2-yl)-1H-[1,2,3]triazolo[4,5-h]quina-zolin-8-amine]"
> 8.00,7.30 to 8.00,"CC(C)Cn1nnc2ccc3cnc(Nc4ccc(N5CCN(C)CC5)cn4)nc3c21 [Compound I-19, 1-Isobutyl-N-(5-(4-methylpiperazin-1-yl)pyridin-2-yl)-1H-[1,2,3]triazolo[4,5-h]quinazolin-8-amine hydrochloride]"
> 8.00,7.30 to 8.00,"CCN1CCN(c2ccc(Nc3ncc4ccc5nnn(CC(C)C)c5c4n3)nc2)CC1 [Compound I-20, N-(5-(4-Ethylpiperazin-1-yl)pyridin-2-yl)-1-isobutyl-1H-[1,2,3]triazolo[4,5-h] quinazolin-8-amine]"
7.30 to 8.00,7.00 to 7.30,"CC(C)Cn1nnc2ccc3cnc(Nc4ccc(N5CCOCC5)cn4)nc3c21 [Compound I-21, 1-Isobutyl-N-(5-morpholinopyridin-2-yl)-1H-[1,2,3]triazolo[4,5-h]quinazolin-8-amine]"
> 8.00,> 8.00,"c1cc(Nc2ncc3ccc4nnn(C5CCCC5)c4c3n2)ncc1N1CCNCC1 [Compound I-22, 1-Cyclopentyl-N-(5-(piperazin-1-yl)pyridin-2-yl)-1H-[1,2,3]triazolo[4,5-h]quinazolin-8-amine hydrochloride]"
> 8.00,7.30 to 8.00,"CN1CCN(c2ccc(Nc3ncc4ccc5nnn(C6CCCC6)c5c4n3)nc2)CC1 [Compound I-23, 1-Cyclopentyl-N-(5-(4-methylpiperazin-1-yl)pyridin-2-yl)-1H-[1,2,3]triazolo[4,5-h] quinazolin-8-amine]"
